Data: patent US20200338045A1, “ISOINDOLINE COMPOSITIONS AND METHODS FOR TREATING NEURODEGENERATIVE DISEASE” (priority 2017, published 2020)
Entries after “also recorded” stand apart in the source; their conditions may differ. Read-outs that look alike come from different tables or passages of the source. Marks after values point to notes of the source that are not given here.

Assays:
Assay type in all cases: in vivo, human
[1] = Phase 1 SAD safety (adverse events, laboratory, ECG)
Experimental: Part A was a single ascending dose cohort study in which healthy, young subjects (less than 65 years old) received one dose of study drug in the morning after an overnight fast. Cohort dosing started at 10 mg and increased to 30 mg, 90 mg, 180 mg, 450 mg, and 1120 mg in subsequent cohorts. Six drug-treated and two placebo-treated subjects were randomized in each cohort. A seventh cohort of six subjects each received a single 90 mg dose of drug 30 min. after a meal. Following completion of all safety assessments and blood draws for PK analyses, subjects were discharged on Day 3.
Safety variables, including incidence of adverse events (AEs), vital signs, clinical laboratory findings, 12-lead electrocardiographs (ECGs), physical examination, and affective and cognitive measures (Part B only), were summarized for all subjects who received study drug.

[2] = Phase 1 MAD CSF concentration of CT1812; details: for receptor occupancy associated with CSF CT1812 levels: extrapolated from transgenic mouse brain; for concentration at 1.5 h: human, cerebrospinal fluid, oral, 1.5 hr post dose, Day 7 to Day 9
Excerpt: CT1812 was quantitated in CSF using a validated LC-MS/MS method.

[3] = Phase 1 multiple ascending dose (MAD) plasma pharmacokinetics; details: for Cmax / AUC(0-t) / Tmax / half-life: human, plasma, oral; for AUC(0-t): read-out: AUC0-24h (mean)
Experimental: In Part B, healthy young subjects in each cohort received the same dose once daily for 14 days after overnight fasting. Cohort dosing started at 280 mg, followed by 560 mg and 840 mg in subsequent cohorts. In each cohort, eight subjects received drug and two received placebo. A fourth cohort of healthy elderly subjects (≥65 years old) received a 560 mg dose vs. placebo daily for 14 days (seven active, two placebo).
In Part A, blood draws for assessment of PK parameters occurred pre-dose and at 15, 30, 45, 60, and 90 minutes post dose as well as at 2, 3, 4, 8, 12, 24, 36, and 48 hours post dose. […] In Part B, blood samples for plasma PK analysis were taken on Day 1 at pre-dose and at 2 hours post-dose, on Day 3 at pre-dose and at 15, 30 and 45 minutes and 1, 2, 3, 4, 8, 12 and 24 hours post-dose, on Days 4, 6, 8 and 10 at pre-dose and at 1.5 hours post-dose and following the final dose on Day 14 at pre-dose and 15, 30 and 45 minutes and 1, 2, 4, 8, 12, 24, 36 and 48 hours post-dose.
This was assessed by analysis of variance (ANOVA) of log-transformed Cmax, AUC0-24, AUC0-48, and/or AUC0-inf, using a model with factors for treatment (fed status or age [young vs. elderly] status) and subject within sequence. Treatment mean differences and 90% confidence intervals of the log transformed PK parameters were back-transformed, to present the geometric least squares means ratios and 90% confidence limits.

[4] = 560 mg daily, Day 14 (steady state)
[5] = 560 mg daily, day 3, geometric least-squares mean
[6] = 280 mg, 280 mg QD, Day 3, age up to 64 years (n = 8)
[7] = 280 mg, 280 mg QD, Day 14, age up to 64 years (n = 8)
[8] = 560 mg, 560 mg QD, Day 3, age at least 65 years (n = 7)
[9] = 560 mg, 560 mg QD, Day 3, age up to 64 years (n = 8)
[10] = 560 mg, 560 mg QD, Day 14, age at least 65 years (n = 7)
[11] = 560 mg, 560 mg QD, Day 14, age up to 64 years (n = 8)
[12] = 840 mg, 840 mg QD, Day 3, age up to 64 years (n = 7)
[13] = 840 mg, 840 mg QD, Day 14, age up to 64 years (n = 7)

With `CC(C)(C)Oc1cc(CCC(C)(C)N2Cc3ccc(S(C)(=O)=O)cc3C2)ccc1O` [CT1812] the “ECG parameters or changes” value ([1]; SAD) was “No ECG parameters or changes were assessed as clinically significant”, the “deaths or serious adverse events” value ([1]; SAD) was “no deaths or other serious adverse events” and the “All TEAEs, number of subjects” value ([1]; SAD Total Active (n = 42)) was 18. The “Headache, % of subjects” value ([1]; SAD Total Active (n = 42)) was “(14%)”, the “Headache, number of subjects” value ([1]; SAD Total Active (n = 42)) was 6 and the “Nausea, % of subjects” value ([1]; SAD Total Active (n = 42)) was “(14%)”. For the same compound, the “Nausea, number of subjects” value ([1]; SAD Total Active (n = 42)) was 6, the “All TEAEs, % of subjects” value ([1]; single 10 mg fasted (n = 6)) was “(33%)” and the “All TEAEs, number of subjects” value ([1]; single 10 mg fasted (n = 6)) was 2. The “Headache, % of subjects” value ([1]; single 10 mg fasted (n = 6)) was “(50%)”, the “Headache, number of subjects” value ([1]; single 10 mg fasted (n = 6)) was 3 and the “Nausea, % of subjects” value ([1]; single 10 mg fasted (n = 6)) was “(17%)”. The “Nausea, number of subjects” value ([1]; single 10 mg fasted (n = 6)) was 1, the “All TEAEs, % of subjects” value ([1]; single 30 mg fasted (n = 6)) was “(67%)” and the “All TEAEs, number of subjects” value ([1]; single 30 mg fasted (n = 6)) was 4. For the same compound, the “All TEAEs, % of subjects” value ([1]; single 90 mg fed (n = 6)) was “(33%)”, the “All TEAEs, number of subjects” value ([1]; single 90 mg fed (n = 6)) was 2 and the “Headache, % of subjects” value ([1]; single 90 mg fed (n = 6)) was “(17%)”. For the same compound, the “Headache, number of subjects” value ([1]; single 90 mg fed (n = 6)) was 1, the “All TEAEs, % of subjects” value ([1]; single 180 mg fasted (n = 6)) was “(33%)” and the “All TEAEs, number of subjects” value ([1]; single 180 mg fasted (n = 6)) was 2. The “All TEAEs, % of subjects” value ([1]; single 450 mg fasted (n = 6)) was “(67%)”, the “All TEAEs, number of subjects” value ([1]; single 450 mg fasted (n = 6)) was 4 and the “Headache, % of subjects” value ([1]; single 450 mg fasted (n = 6)) was “(17%)”. The “Headache, number of subjects” value ([1]; single 450 mg fasted (n = 6)) was 1, the “Nausea, % of subjects” value ([1]; single 450 mg fasted (n = 6)) was “(33%)” and the “Nausea, number of subjects” value ([1]; single 450 mg fasted (n = 6)) was 2. For the same compound, the “All TEAEs, % of subjects” value ([1]; single 1120 mg fasted (n = 6)) was “(67%)”, the “All TEAEs, number of subjects” value ([1]; single 1120 mg fasted (n = 6)) was 4 and the “Headache, % of subjects” value ([1]; single 1120 mg fasted (n = 6)) was “(17%)”. For the same compound, the “Headache, number of subjects” value ([1]; single 1120 mg fasted (n = 6)) was 1, the “Nausea, % of subjects” value ([1]; single 1120 mg fasted (n = 6)) was “(50%)” and the “Nausea, number of subjects” value ([1]; single 1120 mg fasted (n = 6)) was 3. The “tolerability, single dose” value ([1]; single dose 10 mg to 1120 mg, healthy young subjects) was “safe and well tolerated”, the “receptor occupancy associated with CSF CT1812 levels” value ([2]; 560 mg dose) was 95% and the “projected receptor occupancy at average CSF concentrations” value ([2]; 560 mg-840 mg dose range, 1.5 hr post-dose, equivalent mouse brain concentration) was 97-98%. For the same compound, the “receptor occupancy associated with CSF CT1812 levels” value ([2]; 840 mg dose) was 98%, the “CSF CT1812 concentration vs dose” value ([2]; MAD 560 and 840 mg, at peak plasma concentrations) was “dose-dependent manner; also recorded: dose-dependent increases” and the “blood-brain barrier penetration in humans” value ([2]; from CT1812 levels in CSF) was “penetrates the blood-brain barrier”. For the same compound, the concentration at 1.5 h ([2]; 560 mg daily) was 8 ng/mL, the concentration at 1.5 h ([2]; 840 mg daily) was 23.3 ng/mL and the CLss/F (mean) ([3]; 280 mg QD, Day 14, age up to 64 years (n = 8), unit assumed) was 387 L/h. For the same compound, the “CLss/F (mean)” value ([3]; 560 mg QD, Day 14, age at least 65 years, n = 7) was 169^‡‡, the CLss/F (mean) ([3]; 560 mg QD, Day 14, age up to 64 years (n = 8), unit assumed) was 296 L/h and the “AUC0-24h, aged cohort vs younger subjects” value [3, 4] was 1.5 times. For the same compound, the “Cmax, aged cohort vs younger subjects” value [3, 4] was 1.6 times, the “AUC0-24h, aged cohort vs subjects under 64 years” value [3, 5] was ~1.34 times and the “Cmax, aged cohort vs subjects under 64 years” value [3, 5] was “approximately 1.7 times”. For the same compound, the “CLss/F (mean)” value ([3]; 840 mg QD, Day 14, age up to 64 years, n = 7) was 212^‡‡, the “Cmax and AUC / plasma concentration vs dose” value ([3]; MAD 280 to 840 mg) was “slightly greater than dose proportionally” and the “accumulation with repeat dosing” value ([3]; Q.D. over 14 days) was “minimal accumulation”. For the same compound, the Cmax [3, 6] was 238 ng/mL, the AUC(0-t) [3, 6] was 851 ng·h/mL and the Tmax ([3]; 280 mg, 280 mg QD, Day 3, age up to 64 years (n = 8), read-out: Tmax (median)) was 1.5 h. The half-life ([3]; 280 mg, 280 mg QD, Day 3, age up to 64 years, n = 6, over max 24 hours post dose, read-out: t1/2 (mean) (converted)) was 8.97 h, the Cmax [3, 7] was 431 ng/mL and the AUC(0-t) [3, 7] was 1060 ng·h/mL. For the same compound, the Tmax ([3]; 280 mg, 280 mg QD, Day 14, age up to 64 years (n = 8), read-out: Tmax (median)) was 0.88 h, the half-life ([3]; 280 mg, 280 mg QD, Day 14, age up to 64 years (n = 8), read-out: t1/2 (mean) (converted)) was 12 h and the Cmax [3, 8] was 567 ng/mL. The AUC(0-t) [3, 8] was 3330 ng·h/mL, the Tmax ([3]; 560 mg, 560 mg QD, Day 3, age at least 65 years (n = 7), read-out: Tmax (median)) was 2 h and the half-life ([3]; 560 mg, 560 mg QD, Day 3, age at least 65 years, n = 4, over max 24 hours post dose, read-out: t1/2 (mean) (converted)) was 8.83 h. For the same compound, the Cmax [3, 9] was 407 ng/mL, the AUC(0-t) [3, 9] was 1940 ng·h/mL and the Tmax ([3]; 560 mg, 560 mg QD, Day 3, age up to 64 years (n = 8), read-out: Tmax (median)) was 2 h. For the same compound, the half-life ([3]; 560 mg, 560 mg QD, Day 3, age up to 64 years, n = 2, over max 24 hours post dose, read-out: t1/2 (mean) (converted)) was 8.56 h, the Cmax [3, 10] was 853 ng/mL and the AUC(0-t) [3, 10] was 4450 ng·h/mL. The Tmax ([3]; 560 mg, 560 mg QD, Day 14, age at least 65 years (n = 7), read-out: Tmax (median)) was 1 h, the half-life ([3]; 560 mg, 560 mg QD, Day 14, age at least 65 years (n = 7), read-out: t1/2 (mean) (converted)) was 12.8 h and the Cmax [3, 11] was 651 ng/mL. It also gave an AUC(0-t) [3, 11] of 2810 ng·h/mL, a Tmax ([3]; 560 mg, 560 mg QD, Day 14, age up to 64 years (n = 8), read-out: Tmax (median)) of 2 h and a half-life ([3]; 560 mg, 560 mg QD, Day 14, age up to 64 years (n = 8), read-out: t1/2 (mean) (converted)) of 12.3 h. The Cmax [3, 12] was 813 ng/mL, the AUC(0-t) [3, 12] was 3610 ng·h/mL and the Tmax ([3]; 840 mg, 840 mg QD, Day 3, age up to 64 years (n = 7), read-out: Tmax (median)) was 2 h. It also gave a half-life ([3]; 840 mg, 840 mg QD, Day 3, age up to 64 years, n = 5, over max 24 hours post dose, read-out: t1/2 (mean) (converted)) of 9.39 h, a Cmax [3, 13] of 991 ng/mL and an AUC(0-t) [3, 13] of 4990 ng·h/mL. The Tmax ([3]; 840 mg, 840 mg QD, Day 14, age up to 64 years (n = 7), read-out: Tmax (median)) was 2 h, the half-life ([3]; 840 mg, 840 mg QD, Day 14, age up to 64 years, n = 6, read-out: t1/2 (mean) (converted)) was 8.93 h and the half-life ([3]; MAD, read-out: average terminal half-life at steady state (converted)) was ~12 h. It also gave a Tmax ([3]; part B (MAD), 280-840 mg, read-out: Tmax in plasma, range over doses) of 0.88 to 2 h.
